Paper PMC12655621 (Pharmaceuticals, 2025)
pIC50: −log10 of the molar value.

Legend:
U87 MG = tested on: U87 MG; parameters: method as in earlier work; conditions: human U87 MG glioma cells; errors omitted; ref 19 (compounds 8 and 9: ref 13); cited from earlier work
C6 = tested on: C6; parameters: method as in earlier work; conditions: C6 glioma cells; errors omitted; ref 19 (compounds 8 and 9: ref 13); cited from earlier work
F98 = tested on: F98; parameters: method as in earlier work; conditions: F98 rat glioma cells; errors omitted; ref 19 (compounds 8 and 9: ref 13); cited from earlier work
[1] = tested on: Mix of primary glial cell culture; parameters: method as in earlier work; conditions: mix of primary glial cell culture (healthy cells); errors omitted; ref 19 (compounds 8 and 9: ref 13); cited from earlier work
[2] = Shake-flask logD7.4 n-octanol/PBS; format: physicochemical; conditions: n-octanol/PBS pH 7.4, shake-flask, room temperature
Experimental: A PBS (pH 7.4) solution was saturated with n-octanol, and n-octanol was saturated with PBS (pH 7.4) by vigorous shaking, followed by equilibration for at least 24 h to ensure complete phase separation. The reference compound 4-chloro-6,7-bis(2-methoxyethoxy)quinazoline and analogs 1–7 were dissolved in the octanol phase (previously saturated with PBS), and equal volumes of the aqueous phase (previously saturated with octanol) were added. Final assay solutions were prepared at 10 μM by diluting 2 μL of a 5 mM stock solution into 1 mL of total volume. The biphasic mixtures were shaken for 24 h at room temperature. After equilibration, both the octanolic and aqueous phases were analyzed by UV–visible spectrophotometry using a Shimadzu UV-1603. […] LogD7.4 values were calculated as […]. Each determination was performed in triplicate. Regression analyses and curve fittings were performed using GraphPad Prism 8.0 software (GraphPad Software Inc., LaJolla, CA, USA).

| logD at 24 h [2] | Compound | pIC50 (U87 MG) | pIC50 (C6) | pIC50 (F98) | pIC50 [1] |
| --- | --- | --- | --- | --- | --- |
|  | C#Cc1cccc(Nc2ncnc3cc(OCCOC)c(OCCOC)cc23)c1 [Erl, erlotinib] | 4.20 | < 4.00 | < 4.00 | < 4.00 |
| 1.02 | COCCOc1cc2ncnc(Cl)c2cc1OCCOC [4-chloro-6,7-bis(2-methoxyethoxy)quinazoline] |  |  |  |  |
